Data taken from ChEMBL document CHEMBL4390682, “Purification, structural elucidation, antioxidant capacity and neuroprotective potential of the main polyphenolic compounds contained in Achyrocline satureioides (Lam) D.C. (Compositae)” (Bioorg Med Chem, 2019).
The source made the active and inactive calls. The calls are words filed in the database; no cut-off is given here.

Assays:
Brain = assay: Antioxidant activity in Sprague-Dawley rat brain homogenates assessed as inhibition of lipoperoxidation incubated for 40 mins by fluorescence based assay; assay type: functional, tissue-based
[1] = Antioxidant activity in pH 7.4 PBS assessed as H2O2 oxidation at 50 uM incubated for 10 mins in presence of HRP and H2O2 by UV spectroscopy and HPLC analysis relative to control; assay type: functional
[2] = Antioxidant activity in pH 7.4 PBS assessed as reactivity against GSH at 50 uM incubated for 10 mins in presence of HRP and H2O2 in presence of 40 uM GSH by HPLC-DAD and HPLC-MS/MS analysis relative to control; assay type: functional
Rattus norvegicus = species on record: Rattus norvegicus; assay: Neuroprotective activity in Sprague-Dawley rat CGN cells assessed as protection against H2O2-induced cytotoxicity by measuring increase in cell viability at 5 to 100 uM pre-incubated for 24 hrs before H2O2 stimulation for 24 hrs by MTT assay; assay type: functional
[3] = Antioxidant activity in pH 7.4 PBS assessed as ABTS+ radical scavenger activity incubated under absence of light for 16 hrs; assay type: functional
[4] = GSH reactivity in pH 7.4 PBS assessed as hydroxylated quercetin formation at 50 uM incubated for 10 mins in presence of HRP and H2O2 in presence of 40 uM GSH by HPLC-DAD and HPLC-MS/MS analysis relative to control; assay type: physicochemical; settings: buffer, pH 7.4, 10 min
[5] = GSH reactivity in pH 7.4 PBS assessed as GSH-adduct formation at 50 uM incubated for 10 mins in presence of HRP and H2O2 in presence of 40 uM GSH by HPLC-DAD and HPLC-MS/MS analysis relative to control; assay type: physicochemical; settings: buffer, pH 7.4, 10 min

Structure (SMILES)	EC50 (Brain) [µM]	Activity [1] [%]	Activity [2]	Activity (Rattus norvegicus)	EC50 [3] [µM]	Activity [4]	Activity [5]
O=c1cc(-c2ccc(O)c(O)c2)oc2cc(O)cc(O)c12 [LUTEOLIN]	79	25	Active	Active	46		
COc1c(-c2ccc(O)c(O)c2)oc2cc(O)cc(O)c2c1=O [3-O-METHYLQUERCETIN]	74	0	Active	inactive	45		
O=c1c(O)c(-c2ccc(O)c(O)c2)oc2cc(O)cc(O)c12 [QUERCETIN]	5.7	90	Active	Active	9.6	Active	Active
O=c1c(O[C@@H]2O[C@H](CO)[C@@H](O)[C@H](O)[C@H]2O)c(-c2ccc(O)c(O)c2)oc2cc(O)cc(O)c12 [ISOQUERCETIN]	94	15	Active	Active	152		
